This is an account of results in publication PMC8705693, “Roles of the Na^+/H^+ Exchanger Isoform 1 and Urokinase in Prostate Cancer Cell Migration and Invasion” (International Journal of Molecular Sciences, 2021).

Experiment [1] concerns DU 145. The arrangement: method as in PMID 9044824. The settings on record: DU 145 xenografted SCID mice, high doses; cited from earlier work.
For experiment [2], the system named is NHE1. On the set-up: method as in PMID 21544803. The note with it: cited from earlier work.
Experiment [3] deals with LNCaP. The arrangement: method as in PMID 9044824. The settings on record: LNCaP xenografted SCID mice, high doses; cited from earlier work.
Experiment [4] has as its target T1, NHE1 (Homo sapiens, UniProt P19634).
T1 construct: the activity of the NHE1 protein in DU 145 cells; host or cells: DU 145 human prostate cancer cells
The experiment in a line: Na+/H+ exchanger activity, double ammonium chloride pulse assay in DU 145 cells. The format is cell-based. As for the experimental part:
We next tested the efficacy of a new family of NHE inhibitors on the activity of the NHE1 protein in DU 145 cells. In order to do this, we used a double-pulse assay, in which there were two consecutive ammonium-chloride-induced acidifications. The rate of recovery in the second pulse in the presence of the inhibitor was measured relative to that of the first pulse in the absence of the inhibitor. In control experiments, we observed that the second pulse, in the absence of the inhibitor, was equivalent to that of the first (Figure 3A). […] A summary of the results is shown in Figure 3C–G, [32] and a summary of the IC50 values can be found in Table 1. […]
Figure 3 Characterization of the effects of pharmacological compounds on the activity of the Na^+/H^+ exchanger using the double-pulse assay. Na^+/H^+ exchanger activity was determined as described in Figure 2 and in the Section 4, using a dual ammonium chloride pulse assay. The rate of recovery in the first pulse, in the absence of the drug, was measured. […]
Intracellular pH was measured using 2′,7-bis(2-carboxyethyl)-5(6) carboxyfluorescein acetoxymethyl ester (BCECF-AM), in a similar manner to that described in [29]. […] Cells were loaded with BCECF and fluorescence was measured using a PTI Deltascan spectrofluorometer. NHE1 activity was measured after inducing an acute acid load using ammonium chloride. […]

The test system of experiment [5] is DU 145 cells. In words: Cell migration, wound-healing assay. The format is cell-based, human. The method, then: Figure 4 Effects of NHE1-KO or NHE1 inhibition on cell migration examined in wild-type (WT) and NHE1-knockout (KO) DU 145 cells. The rate of closure of the induced gap was evaluated using the wound-healing assay, as described in the Section 4. (A) Examples of the effects of NHE1-KO on wound closure. Upper panel: example of WT DU 145 cells with gaps at 0 and 24 h. Middle panel: example of DU 145 NHE1 KO cells at 0 and 24 h. Lower panel: example of RI cell growth. (B) Summary of results; * indicates significant differences from the same group at 0 h, p < 0.05, n ≥ 6. (C,D) Effects of different concentrations of various NHE1/uPA inhibitors on migration (gap closure) of DU 145 cells. CT: control; EMD: EM87580; other compounds are as names. (C) Summary of the effects of 2 µM of various compounds on the migration of wild-type DU 145 cells. (D) Summary of the effects of 10 µM of various compounds on the migration of wild-type DU 145 cells (BB2-30F was used at 30 µM); * indicates significant differences from untreated control cells at p < 0.05.
Cell migration was studied using a wound-healing assay similar to that described in [13]. Briefly, cells were seeded in 12-well plates ([…]) the day before assay, and then grown to a confluent monolayer. A “scratch” was created in the cell monolayer with a p20 pipette tip in a straight line. The cells were washed twice with PBS to remove the debris, and the medium was changed to 2 mL of growth medium. To obtain the same field during image acquisition, three crosses were marked on the outside of each well as a reference. The scratch gaps above and below the crosses were measured. We acquired six images of the scratch for each well using a Leica DM IRB microscope (at 10× magnification). Arbitrary measurements of gap closure were quantified using Image-Pro Plus software. A minimum of six images/well and five measurements/image were acquired for each treatment; all treatments were repeated at least three times. Data shown are representative of the decrease in gap distance at 24 h, compared to the initial measurement at 0 h. […]

Experiment [6] deals with uPA (Homo sapiens, UniProt P00749). In words: uPA activity assay. The format is biochemical. As for the experimental part:
We next tested the efficacy of a new family of NHE inhibitors on the activity of the NHE1 protein in DU 145 cells. In order to do this, we used a double-pulse assay, in which there were two consecutive ammonium-chloride-induced acidifications. The rate of recovery in the second pulse in the presence of the inhibitor was measured relative to that of the first pulse in the absence of the inhibitor. In control experiments, we observed that the second pulse, in the absence of the inhibitor, was equivalent to that of the first (Figure 3A). […] A summary of the results is shown in Figure 3C–G, [32] and a summary of the IC50 values can be found in Table 1. The various compounds tested had differing potencies towards NHE1 activity. […] Figure 3C–G also show the inhibition of uPA activity for each compound on the same plots (red line), assayed as indicated in the Section 4. […] (Table 1).
Synthesis of NHE1/uPA inhibitors was as described previously, as was the determination of uPA activity, where each compound was described as the number in parentheses: BB2-50F (5), BB2-30F (26), AA1-111 (29), and AA1-135 (30).

For experiment [7], the target named is T1, NHE1. The experiment in a line: Na+/H+ exchanger activity, recovery from acute acid load (BCECF). It is filed as cell-based. The settings on record: 10 µM. From the text:
In the next series of experiments, we used NHE1 activity assays to examine the activity of wild-type DU 145 cells and the knockout cell line. […] For the wild type, it illustrates the initial pH, alkalinization caused by ammonium chloride, and the recovery from acidification caused by the removal of ammonium chloride. The recovery upon reintroduction of NaCl is illustrated for both wild-type and knockout cells (Figure 2A,B), and a summary of six experiments is shown in Figure 2E. For wild-type cells, the recovery was robust, at a rate of over 0.008 pH units/s. […] This may be due to either leakage out of the cell, or to the action of other proton transporters present in cells. […]
Figure 2 Na^+/H^+ exchanger activity in parental DU 145 cells, in NHE1-knockout cells (NHE1-KO), and in knockout cells that had NHE1 reintroduced (NHE1-RI). […] The intracellular pH was recorded in cells transiently acidified using ammonium chloride addition. […] (E) Bar graph showing a summary of the initial rate of recovery; this was measured relative to the wild-type protein and recorded as delta pH/s. n ≥ 6, mean +/− SE. […] The activity of NHE1 was calculated from the changes over the first 20 s of recovery from the acid load, and was expressed as ΔpH/s. […]
Intracellular pH was measured using 2′,7-bis(2-carboxyethyl)-5(6) carboxyfluorescein acetoxymethyl ester (BCECF-AM), in a similar manner to that described in [29]. […]

Experiment [8] deals with DU 145 cells. The experiment in a line: Anchorage-dependent colony formation. The format is cell-based, human. The note with it: 10 µM, 8 days. As for the experimental part: To examine anchorage-dependent colony formation, we used 60 mm polystyrene dishes that had been coated to introduce hydrophilic groups producing a standard growth surface (Sarstedt, Numbrecht, Germany). To measure anchorage-dependent colony growth, the cells were plated into in the 60 mm dishes at a density of 1000 cells per dish. They were grown in complete growth media. To examine the effects of various compounds, 2–30 µM of the indicated drugs were added to culture dishes. An equal volume of DMSO (vehicle) alone was added to otherwise-untreated controls. After growth for 8 days, colonies were fixed in ice-cold methanol; they were stained with 0.5% crystal violet in methanol and washed, and then left to air-dry. The colonies of > 50 cells/colony were imaged and counted. The number of […] colonies was normalized to the number of control colonies and presented as a percentage of control colonies formed.

“Also recorded” adds a separate entry of the source.

T1 sequence (P19634 whole entry): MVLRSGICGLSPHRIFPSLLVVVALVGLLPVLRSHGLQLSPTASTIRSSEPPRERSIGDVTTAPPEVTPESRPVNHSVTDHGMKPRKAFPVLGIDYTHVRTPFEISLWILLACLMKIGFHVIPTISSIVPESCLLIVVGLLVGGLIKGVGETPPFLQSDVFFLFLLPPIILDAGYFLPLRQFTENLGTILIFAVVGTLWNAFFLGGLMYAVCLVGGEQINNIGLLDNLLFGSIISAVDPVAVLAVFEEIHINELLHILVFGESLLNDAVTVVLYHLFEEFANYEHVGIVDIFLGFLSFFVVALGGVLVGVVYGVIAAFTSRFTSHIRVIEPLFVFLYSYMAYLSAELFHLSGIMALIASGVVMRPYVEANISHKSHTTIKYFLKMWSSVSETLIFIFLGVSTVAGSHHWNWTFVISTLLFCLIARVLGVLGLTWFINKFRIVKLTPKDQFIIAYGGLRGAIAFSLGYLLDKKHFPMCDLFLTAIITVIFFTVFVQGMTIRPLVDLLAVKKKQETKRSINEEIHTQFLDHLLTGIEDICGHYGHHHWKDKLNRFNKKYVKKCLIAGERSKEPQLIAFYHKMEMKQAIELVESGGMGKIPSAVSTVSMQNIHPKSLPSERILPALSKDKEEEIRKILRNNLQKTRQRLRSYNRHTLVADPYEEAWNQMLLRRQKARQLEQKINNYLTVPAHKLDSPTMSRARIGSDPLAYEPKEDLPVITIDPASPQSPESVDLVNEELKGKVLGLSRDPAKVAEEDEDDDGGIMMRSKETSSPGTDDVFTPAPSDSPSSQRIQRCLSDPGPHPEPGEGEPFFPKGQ

Take `N=C(N)NC(=O)c1nc(Cl)c(N)nc1N` [Amiloride]: the tumor growth entry in experiment [1] and in experiment [3] was “inhibit” in each case. Besides, the “inhibition of NHE1 (in words)” value in experiment [2] is reported as “low μM inhibitor”.

As usually defined, the IC50 is the concentration at which inhibition is half-maximal. For `[H]/N=C(\N)NC(=O)c1cc(S(C)(=O)=O)c(S(C)(=O)=O)cc1C` [EMD87580, rimeporide], the “NHE1 inhibition (in words)” value in experiment [4] (2 µM) is reported as “complete NHE1 inhibition”. Further, the IC50 in experiment [4] (DU 145 cells, double-pulse assay, read-out: Potency (IC50) towards NHE1) worked out at 450 nM. Moreover, the cell migration result in experiment [5] (2 µM, DU 145) is recorded as “lack of effect”. For the same molecule, in experiment [5] (10 µM, 24 h, wild-type DU 145), the “cell migration (gap closure)” value was “only very slight, non-significant effects”. Moreover, the “migration (gap closure)” value in experiment [5] (any of the groups, including wild-type and RI DU 145 cells) is “did not reduce migration”. In addition, the “inhibition of uPA activity (in words)” value in experiment [6] is listed as “no inhibitory activity; also recorded: no effect on uPA”. Also, in experiment [6] (2 µM), the “uPA inhibition (in words)” value is listed as “minimal inhibition of uPA”. Also, the “NHE1 activity (initial rate of recovery)” value in experiment [7] (RI cells (NHE1 reintroduced into KO DU 145)) and in experiment [7] (wild-type DU 145 cells) was “eliminated” throughout. The anchorage-dependent colony formation entry in experiment [8] was “no effect”.
